Test results taken from publication PMC3665795, “Crystal Structure of a Novel N-Substituted L-Amino Acid Dioxygenase from Burkholderia ambifaria AMMD” (PLoS ONE, 2013).

Assays:
SadA = target: T1, SadA (Burkholderia ambifaria, UniProt Q0B2N4); assay: X-ray crystal structure, […] Å; assay type: binding; conditions: Zn(II) in place of Fe(II); cocrystallized with 10 mM α-KG; 0.1 M CHES pH 9.5, 30% PEG 3,000, 293 K; active site, chain A, bidentate to the metal
T1 construct: gene Bamb_6045; dimer
T1 sequence (Q0B2N4 1-273): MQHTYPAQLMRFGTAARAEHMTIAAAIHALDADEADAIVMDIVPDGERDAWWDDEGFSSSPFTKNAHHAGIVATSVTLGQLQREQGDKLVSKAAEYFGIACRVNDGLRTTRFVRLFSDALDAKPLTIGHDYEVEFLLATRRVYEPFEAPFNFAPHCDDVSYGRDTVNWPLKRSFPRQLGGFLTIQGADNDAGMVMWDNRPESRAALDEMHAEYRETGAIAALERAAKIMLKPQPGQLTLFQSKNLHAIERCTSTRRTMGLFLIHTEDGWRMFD

[1] = target: SadA, N-substituted L-amino acid dioxygenase from Burkholderia ambifaria AMMD (Burkholderia ambifaria AMMD); assay: SEC; Superdex 200 size-exclusion chromatography; calibrated with ovalbumin (43 kDa) and conalbumin (75 kDa)

Row | stoichiometry N [1] | Compound | X-ray crystal structure, 1.98 Å (SadA)
1 | – | O=C(O)CCC(=O)C(=O)O [α-KG] | only one α-KG molecule is clearly observed in chain A of the SadA.Zn(II).α-KG structure
2 | 2 | SadA, N-substituted L-amino acid dioxygenase from Burkholderia ambifaria AMMD (enzyme) | –
